Patent US12678488B2, “Batch management method for improving farrowing rate or number of piglets born alive in swine” (priority 2024, dated 2026)
Entries after “also recorded” stand apart in the source; their conditions may differ. Marks after values point to notes of the source that are not given here.

Tested on: Landrace x Large White reserve sows
Experiment: B-Scan ultrasonic monitoring of follicles: ovulation time and ovarian cyst in gilts (Example 2)
Assay type: in vivo, pigs
Text: Landrace x Large White reserve sows, about 230 days old, were randomly divided into a batch farrowing with FTAI and batch farrowing with FTAI combined with different doses of 1-[bis(4-cyanophenyl)methyl]-1,2,4-triazole groups, and during the experiment, the experimental sows in each group were fed regularly and gained free access to water according to the requirements of feeding management in the farm.
Referring to the dosage of 1-[bis(4-cyanophenyl)methyl]-1,2,4-triazole in clinical medicine and using standard weight-dosage conversion, the recommended dosage of 1-[bis(4-cyanophenyl)methyl]-1,2,4-triazole for sows was 50-150 μg/kg·BW/day, orally for consecutive 5 days, as derived by conversion. In addition, the applicant previously studied uniparous cows, and in the ovulation induction scheme, the reference dosage of 1-[bis(4-cyanophenyl)methyl]-1,2,4-triazole was 60-200 μg/kg·BW, administered in a single dose; furthermore, by means of conversion in conjunction with the dosage for model animals (mice) previously in the laboratory, various dosages were designed. The treatment methods of hormones and drugs for sows in each group were as follows: • batch farrowing with FTAI: the sows were fed with an altrenogest oral solution at 20 mg/animal at the same time every day, for 18 days; PMSG at 1000 IU/animal was injected intramuscularly 42 h after the last feeding with altrenogest, GnRH at 100 μg/animal was injected intramuscularly 80 h after the injection of PMSG, a first timed insemination was performed 24 h after the injection of GnRH, and a second timed insemination was performed 16 h after the first insemination.
(§1) Treatment group 1: the hormone treatment and mating schemes for gilts were the same as FTAI. The difference lay in that PMSG at 1000 IU/gilt was injected intramuscularly 42 h after the last feeding with altrenogest, and 1-[bis(4-cyanophenyl)methyl]-1,2,4-triazole at 12 μg/kg·BW/day was administered orally 8 h after the injection of PMSG, for 1 day.
as §1, with “2:” for “1:”, “2 days.” for “1 day.”
as §1, with “3:” for “1:”, “20” for “12”
as §1, with “4:” for “1:”, “sows” for “gilts”, “1-[bis (4-cyanophenyl)methyl]-1,2,4-triazole” for “1-[bis(4-cyanophenyl)methyl]-1,2,4-triazole”, “20” for “12”, “2 days.” for “1 day.”
as §1, with “5:” for “1:”, “IU/animal” for “IU/gilt”, “20” for “12”, “3 days.” for “1 day.”
as §1, with “6:” for “1:”, “IU/animal” for “IU/gilt”, “20” for “12”, “5 days.” for “1 day.”
Treatment group 7: the hormone treatment and mating schemes for gilts were the same as FTAI. […]

[1] = 80 and 160 μg/kg·BW/day for 5 consecutive days (treatment groups 9 and 10)
[2] = Example 2 Treatment group 1: 12 μg/kg·BW/day orally, 1 day, gilts
[3] = Example 2 Treatment group 2: 12 μg/kg·BW/day orally, 2 days, gilts
[4] = Example 2 Treatment group 3: 20 μg/kg·BW/day orally, 1 day, gilts
[5] = Example 2 Treatment group 4: 20 μg/kg·BW/day orally, 2 days, gilts
[6] = Example 2 Treatment group 5: 20 μg/kg·BW/day orally, 3 days, gilts
[7] = Example 2 Treatment group 6: 20 μg/kg·BW/day orally, 5 days, gilts
[8] = Example 2 Treatment group 7: 40 μg/kg·BW/day orally, 1 day, gilts
[9] = Example 2 Treatment group 8: 40 μg/kg·BW/day orally, 5 days, gilts
[10] = Example 2 Treatment group 9: 80 μg/kg·BW/day orally, 5 days, gilts
[11] = Example 2 Treatment group 10: 160 μg/kg·BW/day orally, 5 days, gilts
[12] = gilts, with the increase of the dosage
[13] = low-dose, batch farrowing with FTAI

SMILES: N#Cc1ccc(C(c2ccc(C#N)cc2)n2cncn2)cc1 [1-[bis(4-cyanophenyl)methyl]-1,2,4-triazole]
- ovarian cyst [1]: had a cyst problem
- ovulation for 10 days after stopping taking altrenogest [1]: did not ovulate
- Cyst ratio (%) [2]: 0.00^b %
- Interval from stopping taking Altrenogest to ovulation (h) [2]: 170.13 ± 3.87^a h
- Number of animals with ovarian cyst [2]: 0
- Number of animals with ovulation [2]: 27
- Cyst ratio (%) [3]: 0.00^b %
- Interval from stopping taking Altrenogest to ovulation (h) [3]: 172.15 ± 3.34^a h
- Number of animals with ovarian cyst [3]: 0
- Number of animals with ovulation [3]: 23
- Cyst ratio (%) [4]: 0.00^b %
- Interval from stopping taking Altrenogest to ovulation (h) [4]: 169.57 ± 2.19^a h
- Number of animals with ovarian cyst [4]: 0
- Number of animals with ovulation [4]: 22
- Cyst ratio (%) [5]: 0.00^b %
- Interval from stopping taking Altrenogest to ovulation (h) [5]: 194.25 ± 2.96^b h
- Number of animals with ovarian cyst [5]: 0
- Number of animals with ovulation [5]: 21
- Cyst ratio (%) [6]: 11.53^c %
- Interval from stopping taking Altrenogest to ovulation (h) [6]: 177.79 ± 4.75^a h
- Number of animals with ovarian cyst [6]: 3
- Number of animals with ovulation [6]: 24
- Cyst ratio (%) [7]: 15.38^c %
- Interval from stopping taking Altrenogest to ovulation (h) [7]: 187.67 ± 3.69^b h
- Number of animals with ovarian cyst [7]: 4
- Number of animals with ovulation [7]: 20
- Cyst ratio (%) [8]: 11.53^c %
- Interval from stopping taking Altrenogest to ovulation (h) [8]: 191.50 ± 5.74^b h
- Number of animals with ovarian cyst [8]: 3
- Number of animals with ovulation [8]: 22
- Cyst ratio (%) [9]: 79.17^c %
- Interval from stopping taking Altrenogest to ovulation (h) [9]: 210.00 ± 2.65^b h
- Number of animals with ovarian cyst [9]: 19
- Number of animals with ovulation [9]: 4
- Cyst ratio (%) [10]: 100.00^c %
- Number of animals with ovarian cyst [10]: 24
- Number of animals with ovulation [10]: 0
- Cyst ratio (%) [11]: 100.00^c %
- Number of animals with ovarian cyst [11]: 24
- Number of animals with ovulation [11]: 0
- ovulation time (gilts, treatment groups 1, 2, 3, and 5, compared with batch farrowing with FTAI): no significant difference
- number of ovarian cysts [12]: increased
- time from stopping taking altrenogest to ovulation [12]: prolonged
- ovarian cysts (high-dose): caused ovarian cysts
- ovulation in sows (high-dose): inhibited
- ovarian cyst [13]: no ovarian cyst was caused
- ovulation time [13]: no significant change
- ovarian cyst, B-scan ultrasonic inspection (sows, high-dose 80 μg/kg·BW (FIG. 5)): presented as cyst; also recorded: ovarian cyst is presented
- ovulation, B-scan ultrasonic inspection (sows, high-dose 80 μg/kg·BW (FIG. 5), day 10 after stopping altrenogest): no ovulation was observed
- ovulation, B-scan ultrasonic inspection (sows, low-dose 12 μg/kg·BW (FIG. 4)): ovulate normally
